Experimental data taken from patent publication US20240261443A1, “COMPOUNDS AND COMPOSITIONS USEFUL AS RADIOTRACERS FOR IMAGING OF REACTIVE OXIDATIVE SPECIES” (Wake Forest University Health Sciences, priority 2019, published 2024).

Tests used:
PC3 cell line = experiment: MTT cytotoxicity IC50 assay, PC3; assay type: cell-based, human; settings: Homo sapiens
Description: (§1) The cells were seeded at density 5×10^3 cells/well. After 24 h pre-incubation period, cells were treated with 0.01 mM to 2.0 mM of freshly prepared KS1 and KS2 along with ascorbate (n=3) for 48 h. 0.2% of DMSO served as vehicle control. After 48 h, the solutions were removed from all plates and MTT assays performed following the published protocols. IC50 values are presented as mean±SD from at least three independent experiments.
There is growing evidence for a therapeutic role of ascorbate against several cancers (Creagan et al., Failure of High-Dose Vitamin C (Ascorbic Acid) Therapy to Benefit Patients with Advanced Cancer. New England Journal of Medicine 1979, 301 (13), 687-690; Chen et al., Pharmacologic ascorbic acid concentrations selectively kill cancer cells: action as a pro-drug to deliver hydrogen peroxide to tissues. Proceedings of the National Academy of Sciences of the United States of America 2005, 102 (38), 13604-13609; Prasad et al., High Doses of Multiple Antioxidant Vitamins: Essential Ingredients in Improving the Efficacy of Standard Cancer Therapy. Journal of the American College of Nutrition 1999, 18 (1), 13-25). Pharmacologic doses of ascorbate (oral and/or intravenous) could increase the effectiveness of cancer chemotherapy in many solid cancer therapies (López-Lizaro, Dual role of hydrogen peroxide in cancer: Possible relevance to cancer chemoprevention and therapy. Cancer Letters 2007, 252 (1), 1-8; Li et al., New Developments and Novel Therapeutic Perspectives for Vitamin C. The Journal of Nutrition 2007, 137 (10), 2171-2184; Klimant et al., Intravenous vitamin C in the supportive care of cancer patients: a review and rational approach. Current Oncology 2018, 25 (2), 139-148. The primary objective of this experiment was to determine the cytotoxic effects of KS1 at pharmacological concentrations. Cancer cell lines were selected based on their high ROS implications. […] These cell lines have been studied extensively with ascorbic acid treatments (Schoenfeld et al., O(2)(·−) and H(2)O(2)-Mediated Disruption of Fe Metabolism Causes the Differential Susceptibility of NSCLC and GBM Cancer Cells to Pharmacological Ascorbate. Cancer Cell 2017, 31 (4), 487-500.e8; Chen et al., Modulators of Redox Metabolism in Head and Neck Cancer. Antioxidants & Redox Signaling 2017, 29 (16), 1660-1690; Khandrika et al., Oxidative stress in prostate cancer. Cancer Lett 2009, 282 (2), 125-136.

[1] = test system: SCC-61, G48, MD3-MB-231 and PC3 cancer cell lines; experiment: MTT assay, potency versus ascorbate across patient-derived cancer cell lines; assay type: cell-based, human; settings: Example 13; SCC-61, PC3, and MD3-MB-231 cells
Description: as §1
There is growing evidence for a therapeutic role of ascorbate against several cancers (Creagan et al., Failure of High-Dose Vitamin C (Ascorbic Acid) Therapy to Benefit Patients with Advanced Cancer. New England Journal of Medicine 1979, 301 (13), 687-690; Chen et al., Pharmacologic ascorbic acid concentrations selectively kill cancer cells: action as a pro-drug to deliver hydrogen peroxide to tissues. Proceedings of the National Academy of Sciences of the United States of America 2005, 102 (38), 13604-13609; Prasad et al., High Doses of Multiple Antioxidant Vitamins: Essential Ingredients in Improving the Efficacy of Standard Cancer Therapy. Journal of the American College of Nutrition 1999, 18 (1), 13-25). […]

SMILES: O=C1O/C(=C/CCl)C(O)=C1OCc1ccc(OCCF)cc1 [KS1, (E)-5-(2-chloroethylidene)-3-(4-(2-fluoroethoxy)benzyloxy)-4-hydroxyfuran-2(5H)-one]
- IC50 (PC3 cell line; PC-3, Example 7, 48 h): 311 µM
- IC50 (PC3 cell line; PC-3, Example 13): 1010 µM
- selectivity (potency) versus ascorbate [1]: 1.6 to 2.5 fold
